Data: patent publication US20120045393A1 (priority 2009, published 2012)
Non-standard residues stand in square brackets, D forms with d. Residues, ends and D or L forms follow the SMILES beside them. *: point of attachment. DOTA = O=C(O)CN1CCN(CC(=O)O)CCN(CC(=O)*)CCN(CC(=O)O)CC1; Bpa = N[C@@H](Cc1ccc(C(=O)c2ccccc2)cc1)C(=O)O; Ala(4-thiazolyl) = N[C@@H](Cc1cscn1)C(=O)O; Phe(4-Cl) = N[C@@H](Cc1ccc(Cl)cc1)C(=O)O; d2Nal = N[C@H](Cc1ccc2ccccc2c1)C(=O)O; d3Pal = N[C@H](Cc1cccnc1)C(=O)O; azaGly = NNC(=O)O; Sar = CNCC(=O)O

These compounds were tested on LHRH binding sites on human ovarian cancer cells (EFO-27). Conditions: not given.
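Further: Cell-associated radioactivity on confluent EFO-27 monolayers in 96-well plates, measured by microplate scintillation counting.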

SMILES | EC50 [nM]
CC(=O)N[C@H](Cc1ccc2ccccc2c1)C(=O)N[C@@H](CCCNC(=N)N)C(=O)N[C@@H](Cc1c[nH]c2ccccc12)C(=O)N[C@@H](CO)C(=O)N[C@@H](Cc1c[nH]cn1)C(=O)N[C@H](CCCNC(=N)N)C(=O)N[C@@H](Cc1c[nH]c2ccccc12)C(=O)N[C@@H](Cc1ccc(C(=O)c2ccccc2)cc1)C(=O)N1CCC[C@H]1C(=O)NCCOCCNC(=O)CN1CCN(CC(=O)O)CCN(CC(=O)O)CCN(CC(=O)O)CC1 [compound 2992] | 470 ± 20
CN(CC(=O)N[C@@H](Cc1c[nH]cn1)C(=O)N[C@@H](Cc1c[nH]c2ccccc12)C(=O)N[C@@H](CO)C(=O)N[C@@H](Cc1c[nH]cn1)C(=O)N[C@H](Cc1cccnc1)C(=O)N[C@@H](Cc1c[nH]c2ccccc12)C(=O)N[C@@H](Cc1ccc(C(=O)c2ccccc2)cc1)C(=O)N1CCC[C@H]1C(=O)NNC(N)=O)C(=O)CN1CCN(CC(=O)O)CCN(CC(=O)O)CCN(CC(=O)O)CC1 [compound 2673] ({DOTA}-[Sar]HWSH[d3Pal]W[Bpa]P[azaGly]-NH2) | 12300
CNCC(=O)N[C@@H](CCCNC(=N)N)C(=O)N[C@@H](Cc1c[nH]c2ccccc12)C(=O)N[C@@H](CO)C(=O)N[C@@H](Cc1c[nH]cn1)C(=O)N[C@H](CCCNC(=N)N)C(=O)N[C@@H](Cc1c[nH]c2ccccc12)C(=O)N[C@@H](Cc1ccc(C(=O)c2ccccc2)cc1)C(=O)N1CCC[C@H]1C(=O)NCCCN(C)CCCNC(=O)CN1CCN(CC(=O)O)CCN(CC(=O)O)CCN(CC(=O)O)CC1 [compound 3045] | 210 ± 80
N=C(N)NCCC[C@H](NC(=O)[C@@H](Cc1ccc2ccccc2c1)NC(=O)CN1CCN(CC(=O)O)CCN(CC(=O)O)CCN(CC(=O)O)CC1)C(=O)N[C@@H](Cc1c[nH]c2ccccc12)C(=O)N[C@@H](CO)C(=O)N[C@@H](Cc1c[nH]cn1)C(=O)N[C@H](CCCNC(=N)N)C(=O)N[C@@H](Cc1c[nH]c2ccccc12)C(=O)N[C@@H](Cc1ccc(C(=O)c2ccccc2)cc1)C(=O)N1CCC[C@H]1C(=O)N[C@H](CO)Cc1ccccc1 [compound 2983] | 450
N=C(N)NCCC[C@H](NC(=O)[C@@H](Cc1ccc2ccccc2c1)NC(=O)CN1CCN(CC(=O)O)CCN(CC(=O)O)CCN(CC(=O)O)CC1)C(=O)N[C@@H](Cc1c[nH]c2ccccc12)C(=O)N[C@@H](CO)C(=O)N[C@@H](Cc1cscn1)C(=O)N[C@H](CCCNC(=N)N)C(=O)N[C@@H](Cc1c[nH]c2ccccc12)C(=O)N[C@@H](Cc1ccc(C(=O)c2ccccc2)cc1)C(=O)N1CCC[C@H]1C(=O)NNC(N)=O [compound 2958] | 710
N=C(N)NCCC[C@H](NC(=O)[C@@H](Cc1ccc2ccccc2c1)NC(=O)CN1CCN(CC(=O)O)CCN(CC(=O)O)CCN(CC(=O)O)CC1)C(=O)N[C@@H](Cc1cccnc1)C(=O)N[C@@H](CO)C(=O)N[C@@H](Cc1c[nH]cn1)C(=O)N[C@H](CCCNC(=N)N)C(=O)N[C@@H](Cc1c[nH]c2ccccc12)C(=O)N[C@@H](Cc1ccc(C(=O)c2ccccc2)cc1)C(=O)N1CCC[C@H]1C(=O)NNC(N)=O [compound 3109] | 730
CNCC(=O)N[C@@H](CCCNC(=N)N)C(=O)N[C@@H](Cc1c[nH]c2ccccc12)C(=O)N[C@@H](CO)C(=O)N[C@@H](Cc1c[nH]cn1)C(=O)N[C@H](CCCNC(=N)N)C(=O)N[C@@H](Cc1c[nH]c2ccccc12)C(=O)N[C@@H](Cc1ccc(C(=O)c2ccccc2)cc1)C(=O)N1CCC[C@H]1C(=O)NCCCNC(=O)CN1CCN(CC(=O)O)CCN(CC(=O)O)CCN(CC(=O)O)CC1 [compound 3076] | 750 ± 40
N=C(N)NCCC[C@H](NC(=O)[C@@H](Cc1ccc2ccccc2c1)NC(=O)CN1CCN(CC(=O)O)CCN(CC(=O)O)CCN(CC(=O)O)CC1)C(=O)N[C@@H](Cc1c[nH]c2ccccc12)C(=O)N[C@@H](Cc1ccncc1)C(=O)N[C@@H](Cc1c[nH]cn1)C(=O)N[C@H](CCCNC(=N)N)C(=O)N[C@@H](Cc1c[nH]c2ccccc12)C(=O)N[C@@H](Cc1ccc(C(=O)c2ccccc2)cc1)C(=O)N1CCC[C@H]1C(=O)NNC(N)=O [compound 2957] | 840
CNCC(=O)N[C@@H](CCCNC(=N)N)C(=O)N[C@@H](Cc1c[nH]c2ccccc12)C(=O)N[C@@H](CO)C(=O)N[C@@H](Cc1c[nH]cn1)C(=O)N[C@H](CCCNC(=N)N)C(=O)N[C@@H](Cc1c[nH]c2ccccc12)C(=O)N[C@@H](Cc1ccc(C(=O)c2ccccc2)cc1)C(=O)N1CCC[C@H]1C(=O)NCC1CCCCN1C(=O)CN1CCN(CC(=O)O)CCN(CC(=O)O)CCN(CC(=O)O)CC1 (stereo partly drawn) [compound 3102] | 200 ± 70

Second part, the compound after the results:

EC50 [nM] | SMILES
7340 | CN(CC(=O)N[C@@H](Cc1c[nH]cn1)C(=O)N[C@@H](Cc1c[nH]c2ccccc12)C(=O)N[C@@H](CO)C(=O)N[C@@H](Cc1cscn1)C(=O)N[C@H](CCCNC(=N)N)C(=O)N[C@@H](Cc1c[nH]c2ccccc12)C(=O)N[C@@H](Cc1ccc(C(=O)c2ccccc2)cc1)C(=O)N1CCC[C@H]1C(=O)NNC(N)=O)C(=O)CN1CCN(CC(=O)O)CCN(CC(=O)O)CCN(CC(=O)O)CC1 [BRU-2769] ({DOTA}-[Sar]HWS[Ala(4-thiazolyl)][dR]W[Bpa]P[azaGly]-NH2; C-terminus assumed)
720 | N=C(N)NCCC[C@H](NC(=O)[C@@H](Cc1ccc2ccccc2c1)NC(=O)CN1CCN(CC(=O)O)CCN(CC(=O)O)CCN(CC(=O)O)CC1)C(=O)N[C@@H](Cc1c[nH]c2ccccc12)C(=O)N[C@@H](CO)C(=O)N[C@@H](Cc1c[nH]cn1)C(=O)N[C@H](CCCNC(=N)N)C(=O)N[C@@H](Cc1c[nH]c2ccccc12)C(=O)N[C@@H](Cc1ccc(C(=O)c2ccccc2)cc1)C(=O)O [BRU-3064, DO3A10CM-Dna12-Arg-Trp-Ser-His-Darg-Trp-Bpa4-OH] ({DOTA}-[d2Nal]RWSH[dR]W[Bpa]-OH)
≤ 200 | N=C(N)NCCC[C@H](NC(=O)[C@H](N)Cc1ccc2ccccc2c1)C(=O)N[C@@H](Cc1c[nH]c2ccccc12)C(=O)N[C@@H](CO)C(=O)N[C@@H](Cc1c[nH]cn1)C(=O)N[C@H](CCCNC(=N)N)C(=O)N[C@@H](Cc1c[nH]c2ccccc12)C(=O)N[C@@H](Cc1ccc(C(=O)c2ccccc2)cc1)C(=O)N1CCC[C@H]1C(=O)NCCOCCNC(=O)CN1CCN(CC(=O)O)CCN(CC(=O)O)CCN(CC(=O)O)CC1 [BRU-2991]
220 | CSCC[C@H](NC(=O)[C@H](Cc1c[nH]c2ccccc12)NC(=O)[C@H](CCCNC(=N)N)NC(=O)[C@@H](Cc1ccc2ccccc2c1)NC(=O)CN1CCN(CC(=O)O)CCN(CC(=O)O)CCN(CC(=O)O)CC1)C(=O)N[C@@H](Cc1c[nH]cn1)C(=O)N[C@H](CCCNC(=N)N)C(=O)N[C@@H](Cc1c[nH]c2ccccc12)C(=O)N[C@@H](Cc1ccc(C(=O)c2ccccc2)cc1)C(=O)N1CCC[C@H]1C(=O)NNC(N)=O [BRU-2964] ({DOTA}-[d2Nal]RWMH[dR]W[Bpa]P[azaGly]-NH2)
630 | CN(CC(=O)N[C@@H](Cc1ccc(Cl)cc1)C(=O)N[C@@H](Cc1c[nH]c2ccccc12)C(=O)N[C@@H](CO)C(=O)N[C@@H](Cc1c[nH]cn1)C(=O)N[C@H](CCCNC(=N)N)C(=O)N[C@@H](Cc1c[nH]c2ccccc12)C(=O)N[C@@H](Cc1ccc(C(=O)c2ccccc2)cc1)C(=O)N1CCC[C@H]1C(=O)NNC(N)=O)C(=O)CN1CCN(CC(=O)O)CCN(CC(=O)O)CCN(CC(=O)O)CC1 [BRU-2719] ({DOTA}-[Sar][Phe(4-Cl)]WSH[dR]W[Bpa]P[azaGly]-NH2)
1610 | CN(CC(=O)N[C@@H](Cc1c[nH]cn1)C(=O)N[C@@H](Cc1c[nH]c2ccccc12)C(=O)N[C@@H](CO)C(=O)N[C@@H](Cc1c[nH]cn1)C(=O)N[C@H](CCCNC(=N)N)C(=O)N[C@@H](Cc1c[nH]c2ccccc12)C(=O)N[C@@H](Cc1ccc(Oc2ccc(O)cc2)cc1)C(=O)N1CCC[C@H]1C(=O)NNC(N)=O)C(=O)CN1CCN(CC(=O)O)CCN(CC(=O)O)CCN(CC(=O)O)CC1 [BRU-2823]

Same assay, conditions: BRU-2813 vs BRU-2666; BRU-2964 vs BRU-2813

SMILES | more potency than the comparator analog [%]
CSCC[C@H](NC(=O)[C@H](Cc1c[nH]c2ccccc12)NC(=O)[C@H](CCCNC(=N)N)NC(=O)[C@@H](Cc1ccc2ccccc2c1)NC(=O)CN1CCN(CC(=O)O)CCN(CC(=O)O)CCN(CC(=O)O)CC1)C(=O)N[C@@H](Cc1c[nH]cn1)C(=O)N[C@H](CCCNC(=N)N)C(=O)N[C@@H](Cc1c[nH]c2ccccc12)C(=O)N[C@@H](Cc1ccc(C(=O)c2ccccc2)cc1)C(=O)N1CCC[C@H]1C(=O)NNC(N)=O [BRU-2964] ({DOTA}-[d2Nal]RWMH[dR]W[Bpa]P[azaGly]-NH2) | 30

Same assay, conditions: EFO-27 cells, competition with [125I-Tyr8]BRU-2477, 90 min

SMILES | EC50 [nM]
C[C@@H](NC(=O)[C@H](Cc1c[nH]cn1)NC(=O)[C@H](CO)NC(=O)[C@H](Cc1c[nH]c2ccccc12)NC(=O)[C@H](Cc1c[nH]cn1)NC(=O)CN(C)C(=O)CN1CCN(CC(=O)O)CCN(CC(=O)O)CCN(CC(=O)O)CC1)C(=O)N[C@@H](Cc1c[nH]c2ccccc12)C(=O)N[C@@H](Cc1ccc(C(=O)c2ccccc2)cc1)C(=O)N1CCC[C@H]1C(=O)NNC(N)=O [compound 2672] ({DOTA}-[Sar]HWSH[dA]W[Bpa]P[azaGly]-NH2) | 14000

Same assay, conditions: Table 5: modifications of amino acids at positions 1 and 2; in vitro binding on EFO-27 cells

SMILES | EC50 [nM]
N=C(N)NCCC[C@H](NC(=O)[C@@H]1Cc2ccccc2CN1C(=O)CNC(=O)CN1CCN(CC(=O)O)CCN(CC(=O)O)CCN(CC(=O)O)CC1)C(=O)N[C@@H](Cc1c[nH]c2ccccc12)C(=O)N[C@@H](CO)C(=O)N[C@@H](Cc1c[nH]cn1)C(=O)N[C@H](CCCNC(=N)N)C(=O)N[C@@H](Cc1c[nH]c2ccccc12)C(=O)N[C@@H](Cc1ccc(C(=O)c2ccccc2)cc1)C(=O)N1CCC[C@H]1C(=O)NNC(N)=O [BRU-3052] | 550
C[C@@H](C(=O)N[C@@H](Cc1c[nH]cn1)C(=O)N[C@@H](Cc1c[nH]c2ccccc12)C(=O)N[C@@H](CO)C(=O)N[C@@H](Cc1c[nH]cn1)C(=O)N[C@H](CCCNC(=N)N)C(=O)N[C@@H](Cc1c[nH]c2ccccc12)C(=O)N[C@@H](Cc1ccc(C(=O)c2ccccc2)cc1)C(=O)N1CCC[C@H]1C(=O)NNC(N)=O)N(C)C(=O)CN1CCN(CC(=O)O)CCN(CC(=O)O)CCN(CC(=O)O)CC1 [BRU-2736] | 1420

Same assay, conditions: Table 11: modification of amino acid at position 5; EFO-27 cells

SMILES | EC50 [nM]
CC(C)C[C@H](NC(=O)[C@@H](CCCNC(=N)N)NC(=O)[C@H](Cc1ccc(O)cc1)NC(=O)[C@H](CO)NC(=O)[C@H](Cc1c[nH]c2ccccc12)NC(=O)[C@H](Cc1c[nH]cn1)NC(=O)CN(C)C(=O)CN1CCN(CC(=O)O)CCN(CC(=O)O)CCN(CC(=O)O)CC1)C(=O)N[C@@H](Cc1ccc(C(=O)c2ccccc2)cc1)C(=O)N1CCC[C@H]1C(=O)NNC(N)=O [compound 2670] ({DOTA}-[Sar]HWSY[dR]L[Bpa]P[azaGly]-NH2) | 8840

Same assay, conditions: Table 13: linker between AA1 and DO3A10CM; EFO-27 cells

SMILES | EC50 [nM]
CN(CC(=O)N[C@@H](Cc1c[nH]cn1)C(=O)N[C@@H](Cc1c[nH]c2ccccc12)C(=O)N[C@@H](CO)C(=O)N[C@@H](Cc1c[nH]cn1)C(=O)N[C@H](CCCNC(=N)N)C(=O)N[C@@H](Cc1c[nH]c2ccccc12)C(=O)N[C@@H](Cc1ccc(C(=O)c2ccccc2)cc1)C(=O)N1CCC[C@H]1C(=O)NNC(N)=O)C(=O)CNC(=O)CN1CCN(CC(=O)O)CCN(CC(=O)O)CCN(CC(=O)O)CC1 [compound 2717] | 1530
